Read-outs that look alike come from different tables or passages of the source. Values belong to the compound of their own block, whether it stands above or below them.
Tests used:
ROCK-II = molecular target: T1, ROCK-II (Homo sapiens, UniProt O75116); test: ROCK-II inhibition assay (ADP-Glo Kinase Assay, ROCK2 Kinase assay); assay type: biochemical; details: for inhibition at 0.01 µg/mL / inhibition at 0.1 µg/mL / inhibition at 1 µg/mL / inhibition at 10 µg/mL: read-out: % of inhibition of ROCK-II ± SD
T1 construct: purchased Promega, USA
T1 sequence (O75116 whole entry): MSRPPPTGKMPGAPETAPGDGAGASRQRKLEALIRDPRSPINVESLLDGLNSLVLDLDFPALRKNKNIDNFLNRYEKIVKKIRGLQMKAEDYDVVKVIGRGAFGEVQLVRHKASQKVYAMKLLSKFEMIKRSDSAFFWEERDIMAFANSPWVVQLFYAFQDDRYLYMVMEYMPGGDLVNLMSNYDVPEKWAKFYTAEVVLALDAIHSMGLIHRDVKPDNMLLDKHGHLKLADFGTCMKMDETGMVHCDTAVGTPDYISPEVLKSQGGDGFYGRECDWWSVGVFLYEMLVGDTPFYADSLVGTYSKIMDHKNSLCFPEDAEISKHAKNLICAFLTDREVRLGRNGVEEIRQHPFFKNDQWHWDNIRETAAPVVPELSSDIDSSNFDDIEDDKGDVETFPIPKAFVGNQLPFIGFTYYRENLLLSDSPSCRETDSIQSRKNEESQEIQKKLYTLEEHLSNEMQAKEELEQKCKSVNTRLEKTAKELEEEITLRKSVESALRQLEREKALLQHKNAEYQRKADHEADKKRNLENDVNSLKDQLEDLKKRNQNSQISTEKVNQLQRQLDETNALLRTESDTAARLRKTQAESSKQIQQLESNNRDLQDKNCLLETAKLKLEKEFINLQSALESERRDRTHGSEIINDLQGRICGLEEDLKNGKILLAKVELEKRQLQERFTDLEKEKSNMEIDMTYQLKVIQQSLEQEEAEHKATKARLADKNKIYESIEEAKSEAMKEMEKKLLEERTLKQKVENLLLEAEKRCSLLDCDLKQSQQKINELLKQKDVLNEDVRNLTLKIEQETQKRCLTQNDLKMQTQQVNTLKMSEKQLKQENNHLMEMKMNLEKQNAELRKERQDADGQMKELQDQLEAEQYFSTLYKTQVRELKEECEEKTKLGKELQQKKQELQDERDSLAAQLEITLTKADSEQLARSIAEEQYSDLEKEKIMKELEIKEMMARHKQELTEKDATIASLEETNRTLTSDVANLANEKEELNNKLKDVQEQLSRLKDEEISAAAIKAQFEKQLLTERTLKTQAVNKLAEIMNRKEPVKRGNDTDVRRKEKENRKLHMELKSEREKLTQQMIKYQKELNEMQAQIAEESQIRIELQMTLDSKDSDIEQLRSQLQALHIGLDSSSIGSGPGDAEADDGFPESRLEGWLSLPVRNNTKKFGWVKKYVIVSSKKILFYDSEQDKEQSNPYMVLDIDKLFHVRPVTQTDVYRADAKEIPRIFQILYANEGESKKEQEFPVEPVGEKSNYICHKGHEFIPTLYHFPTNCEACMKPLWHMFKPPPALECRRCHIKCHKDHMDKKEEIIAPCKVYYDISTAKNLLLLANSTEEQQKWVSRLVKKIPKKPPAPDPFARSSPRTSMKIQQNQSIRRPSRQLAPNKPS
Experimental: A vehicle control for 5% DMSO was used in the assay to check the interference. Standard curve for ROCK-II enzyme was done (Figure 2). Serial dilution and IC50 of the AE was performed in triplicate.
The assay was repeated as mentioned in Section 2.3 on the AE fractions and the isolates T1-T8.
The assay performance measure was used to validate the screening assay quality through calculation of Z-factor according to methodology of Zhang et al., 1999 [18].
Enzyme inhibition by tested samples is expressed as mean ± SD and analyzed using Prism program version 6 (GraphPad Software, Inc., San Diego CA); comparisons among tested samples were carried out using one-way analysis of variance (ANOVA) followed by Bonferroni's multiple comparisons test. P ‹ 0.05 was considered significant.

testosterone production = system: testosterone production; set-up: method as in PMID 26978330; details: cited from earlier work
aromatase enzyme = system: aromatase enzyme; set-up: method as in PMID 23810842; details: Leydig cells, transformation of testosterone to estrogen; cited from earlier work
phosphodiesterase = system: phosphodiesterase; set-up: method as in PMID 23810842; details: high concentration; cited from earlier work
[1] = mean ± SD, triplicates, read-out: IC50 (converted)

inhibition at 0.01 µg/mL (ROCK-II; concentration 0.01 µg/ml): 10.6 ± 2.94% | inhibition at 0.1 µg/mL (ROCK-II; concentration 0.1 µg/ml): 33.2 ± 1.55% | inhibition at 1 µg/mL (ROCK-II; concentration 1 µg/ml): 68.5 ± 0.35% | inhibition at 10 µg/mL (ROCK-II; concentration 10 µg/ml): 82.1 ± 0.63% | IC50 (ROCK-II; [1]): 2010 nM
Compound: COc1cc(/C=C/C=O)ccc1O [Compound T2, trans-coniferyl aldehyde]

Compound: eurycomanone [Compound T6]
% of inhibition of ROCK-II ± SD (ROCK-II; concentration 0.01 µg/ml): 5.4 ± 3.74% | % of inhibition of ROCK-II ± SD (ROCK-II; concentration 0.1 µg/ml): 26.4 ± 2.61∗ % | % of inhibition of ROCK-II ± SD (ROCK-II; concentration 1 µg/ml): 57.1 ± 0.56∗ % | % of inhibition of ROCK-II ± SD (ROCK-II; concentration 10 µg/ml): 78.3 ± 0.38∗ % | IC50 (ROCK-II; mean ± SD, triplicates): 677 ± 51.1∗ ng/ml | testosterone production (testosterone production): induce testosterone production | aromatase enzyme inhibition (aromatase enzyme): aromatase enzyme inhibition | effect on phosphodiesterase (phosphodiesterase): inhibitory effect

inhibition at 0.01 µg/mL (ROCK-II; concentration 0.01 µg/ml): 10.1 ± 3.34% | inhibition at 0.1 µg/mL (ROCK-II; concentration 0.1 µg/ml): 25 ± 2.47% | inhibition at 1 µg/mL (ROCK-II; concentration 1 µg/ml): 66.15 ± 0.07% | inhibition at 10 µg/mL (ROCK-II; concentration 10 µg/ml): 77.1 ± 0.11% | IC50 (ROCK-II; [1]): 2730 nM
Compound: COc1cc2ccc(=O)oc2cc1O [Compound T3, scopoletin]

Compound: CC[C@H](/C=C/[C@@H](C)[C@H]1CC[C@H]2[C@@H]3CC=C4C[C@@H](O)CC[C@]4(C)[C@H]3CC[C@]12C)C(C)C [Compound T1, stigmasterol]
IC50 (ROCK-II; [1]): 14900 nM | inhibition at 0.01 µg/mL (ROCK-II): 2.78 ± 1.84% | inhibition at 0.1 µg/mL (ROCK-II): 13.3 ± 2.26% | inhibition at 1 µg/mL (ROCK-II): 27.4 ± 2.47% | inhibition at 10 µg/mL (ROCK-II): 60.3 ± 0.14%

Compound: CC1=CC(=O)[C@@H](O)[C@@]2(C)[C@H]1CC(=O)[C@@]1(C)[C@H]3C(=O)O[C@H]([C@@H]3C)[C@H](O)[C@@H]12 [Compound T4, eurycomalactone]
IC50 (ROCK-II): 2280 nM | inhibition at 0.01 µg/mL (ROCK-II): 6.13 ± 0.44% | inhibition at 0.1 µg/mL (ROCK-II): 25.7 ± 2.47% | inhibition at 1 µg/mL (ROCK-II): 54 ± 0.42% | inhibition at 10 µg/mL (ROCK-II): 76.2 ± 3.53%

Compound: C=C1C(O)C2(O)OCC34C(CC5C(C)=CC(OC6OC(CO)C(O)C(O)C6O)C(O)C5(C)C23)OC(=O)C(O)C14O [Compound T8, eurycomanol-2-O-β-D-glycopyranoside]
IC50 (ROCK-II): 2520 nM | inhibition at 0.01 µg/mL (ROCK-II): 4.06 ± 3.8% | inhibition at 0.1 µg/mL (ROCK-II): 17 ± 0.77% | inhibition at 1 µg/mL (ROCK-II): 46.5 ± 1.62% | inhibition at 10 µg/mL (ROCK-II): 71.4 ± 2.54%

% of inhibition of ROCK-II ± SD (ROCK-II; concentration 0.01 µg/ml): 22.5 ± 1.27∗ % | % of inhibition of ROCK-II ± SD (ROCK-II; concentration 0.1 µg/ml): 42.15 ± 2.19∗ % | % of inhibition of ROCK-II ± SD (ROCK-II; concentration 1 µg/ml): 68.15 ± 2.75∗ % | % of inhibition of ROCK-II ± SD (ROCK-II; concentration 10 µg/ml): 89.9± 0.42∗ % | inhibition for ROCK-II activity (ROCK-II; concentrations 1-10 μg/ml): 68.15-89.9%
Compound: C[C@@H](N)[C@H]1CC[C@H](C(=O)Nc2ccncc2)CC1.Cl.Cl (relative stereo) [Compound Y-27632, (+)-(R)-trans-4-(1-aminoethyl)-N-(4-pyridyl)cyclohexanecarboxamide dihydrochloride, reference compound]
